The values that follow come from ChEMBL document CHEMBL5724914, “Linking interpersonal differences in gut microbiota composition and drug biotransformation activity” (2024).

Structures are written as SMILES.

The conditions of data set [1]: human gut metagenome, 24 h, 2 µM.
The conditions of data set [2]: human gut metagenome, 24 h, 2 µM. This is another data set of the same source.
For data set [3] the following is noted: human gut metagenome, 24 h, 2 µM. This is another data set of the same source.
Data set [4] is described as follows: The drug is tested on Z-010 corresponding to metagenome with ENA study accession number: PRJEB37062 and ENA sample accession number: ERS12561810 for biotransformation under anaerobic condition. The drug concentrations were measured over 9 timepoints collected between 0 and 24 hours of incubation by liquid-chromatography-coupled mass spectrometry (LC–MS). As to conditions: 2 µM.

A short description of data set [5]: The drug is tested on Z-020 corresponding to rabbit gut metagenome with ENA study accession number: PRJEB37062 and ENA sample accession number: ERS12561819 for biotransformation under anaerobic condition. The drug concentrations were measured over 9 timepoints collected between 0 and 24 hours of incubation by liquid-chromatography-coupled mass spectrometry (LC–MS). The conditions noted are these: 2 µM.

The conditions of data set [6]: human gut metagenome, 24 h, 2 µM. This is another data set of the same source.
Data set [7] in a line: The drug is tested on Z-027 corresponding to metagenome with ENA study accession number: PRJEB37062 and ENA sample accession number: ERS12561826 for biotransformation under anaerobic condition. The drug concentrations were measured over 9 timepoints collected between 0 and 24 hours of incubation by liquid-chromatography-coupled mass spectrometry (LC–MS). The conditions noted are these: 2 µM.

Data set [8] in a line: The drug is tested on Z-008 corresponding to metagenome with ENA study accession number: PRJEB37062 and ENA sample accession number: ERS12561808 for biotransformation under anaerobic condition. The drug concentrations were measured over 9 timepoints collected between 0 and 24 hours of incubation by liquid-chromatography-coupled mass spectrometry (LC–MS). As to conditions: 2 µM.

Data set [9] can be described thus: The drug is tested on Z-023 corresponding to metagenome with ENA study accession number: PRJEB37062 and ENA sample accession number: ERS12561822 for biotransformation under anaerobic condition. The drug concentrations were measured over 9 timepoints collected between 0 and 24 hours of incubation by liquid-chromatography-coupled mass spectrometry (LC–MS). The conditions noted are these: 2 µM.

The nature of data set [10]: The drug is tested on WLS-086 corresponding to human gut metagenome with ENA study accession number: PRJEB37062 and ENA sample accession number: ERS12561752 for biotransformation under anaerobic condition. The drug concentrations were measured over 9 timepoints collected between 0 and 24 hours of incubation by liquid-chromatography-coupled mass spectrometry (LC–MS). As to conditions: 2 µM.

The conditions of data set [11]: human gut metagenome, 24 h, 2 µM. This is another data set of the same source.
The nature of data set [12]: The drug is tested on Z-002 corresponding to rabbit gut metagenome with ENA study accession number: PRJEB37062 and ENA sample accession number: ERS12561802 for biotransformation under anaerobic condition. The drug concentrations were measured over 9 timepoints collected between 0 and 24 hours of incubation by liquid-chromatography-coupled mass spectrometry (LC–MS). As to conditions: 2 µM.

Data set [13] in a line: The drug is tested on WLS-007 corresponding to human gut metagenome with ENA study accession number: PRJEB37062 and ENA sample accession number: ERS12561742 for biotransformation under anaerobic condition. The drug concentrations were measured over 9 timepoints collected between 0 and 24 hours of incubation by liquid-chromatography-coupled mass spectrometry (LC–MS). As to conditions: 2 µM.

The nature of data set [14]: The drug is tested on WLS-052 corresponding to human gut metagenome with ENA study accession number: PRJEB37062 and ENA sample accession number: ERS12561747 for biotransformation under anaerobic condition. The drug concentrations were measured over 9 timepoints collected between 0 and 24 hours of incubation by liquid-chromatography-coupled mass spectrometry (LC–MS). As to conditions: 2 µM.

The nature of data set [15]: The drug is tested on Z-019 corresponding to rat gut metagenome with ENA study accession number: PRJEB37062 and ENA sample accession number: ERS12561818 for biotransformation under anaerobic condition. The drug concentrations were measured over 9 timepoints collected between 0 and 24 hours of incubation by liquid-chromatography-coupled mass spectrometry (LC–MS). The conditions noted are these: 2 µM.

The nature of data set [16]: The drug is tested on Z-003 corresponding to pig gut metagenome with ENA study accession number: PRJEB37062 and ENA sample accession number: ERS12561803 for biotransformation under anaerobic condition. The drug concentrations were measured over 9 timepoints collected between 0 and 24 hours of incubation by liquid-chromatography-coupled mass spectrometry (LC–MS). The conditions noted are these: 2 µM.

A short description of data set [17]: The drug is tested on WLS-069 corresponding to human gut metagenome with ENA study accession number: PRJEB37062 and ENA sample accession number: ERS12561748 for biotransformation under anaerobic condition. The drug concentrations were measured over 9 timepoints collected between 0 and 24 hours of incubation by liquid-chromatography-coupled mass spectrometry (LC–MS). As to conditions: 2 µM.

A short description of data set [18]: The drug is tested on Z-014 corresponding to rat gut metagenome with ENA study accession number: PRJEB37062 and ENA sample accession number: ERS12561814 for biotransformation under anaerobic condition. The drug concentrations were measured over 9 timepoints collected between 0 and 24 hours of incubation by liquid-chromatography-coupled mass spectrometry (LC–MS). The conditions noted are these: 2 µM.

The conditions of data set [19]: human gut metagenome, 24 h, 2 µM. The source holds these as a separate data set.
For data set [20] the following is noted: human gut metagenome, 24 h, 2 µM. This is another data set of the same source.
Also: call rule not given here.

For the compound `CN(C)C(=O)Oc1cc(OC(=O)N(C)C)cc(C(O)CNC(C)(C)C)c1` (stereo not given) [BAMBUTEROL], the “Bacterial Biotransformation” value in data set [1] was “Compound metabolized”; in data set [2], “Compound metabolized”; in [3], “Compound metabolized”; in [4], “Compound NOT metabolized”; in [5], “Compound NOT metabolized”; in data set [6], “Compound NOT metabolized”. For the same compound, the “Bacterial Biotransformation” value was “Compound NOT metabolized” in data set [7]; “Compound NOT metabolized” in data set [8]; “Compound metabolized” in data set [9]; “Compound metabolized” in [10]; “Compound metabolized” in data set [11]; “Compound metabolized” in data set [12]. Also, the “Bacterial Biotransformation” value in data set [13] is “Compound metabolized”; in data set [14], “Compound NOT metabolized”; in data set [15], “Compound NOT metabolized”; in [16], “Compound NOT metabolized”; in [17], “Compound NOT metabolized”; in [18] it was “Compound NOT metabolized”. Moreover, the “Bacterial Biotransformation” value in [19] is on record as “Compound NOT metabolized”; in data set [20] it was “Compound metabolized”.
Regarding `CCCN(CCC)CCc1cccc2c1CC(=O)N2` [ROPINIROLE], the “Bacterial Biotransformation” value in [1] is recorded as “Compound NOT metabolized”; in data set [2] it was “Compound NOT metabolized”; in data set [3], “Compound NOT metabolized”; in data set [4], “Compound NOT metabolized”; in data set [5] it was “Compound metabolized”; in data set [6], “Compound NOT metabolized”. Besides, the “Bacterial Biotransformation” value in [7] is reported as “Compound NOT metabolized”; in [8], “Compound NOT metabolized”; in [9], “Compound NOT metabolized”; in data set [10] it was “Compound metabolized”; in data set [11] it was “Compound metabolized”; in [12], “Compound metabolized”. Further, the “Bacterial Biotransformation” value is “Compound NOT metabolized” in [13]; “Compound NOT metabolized” in data set [14]; “Compound NOT metabolized” in data set [15]; “Compound metabolized” in [16]; “Compound NOT metabolized” in data set [17]; “Compound NOT metabolized” in [18]. Further, the “Bacterial Biotransformation” value in [19] is on record as “Compound NOT metabolized”; in data set [20], “Compound metabolized”.
Regarding `O=C1CC2(CCCC2)CC(=O)N1CCCCN1CCN(c2ncccn2)CC1` [BUSPIRONE], the “Bacterial Biotransformation” value is recorded as “Compound NOT metabolized” in [1]; “Compound NOT metabolized” in data set [2]; “Compound metabolized” in data set [3]; “Compound metabolized” in data set [4]; “Compound NOT metabolized” in data set [5]; “Compound metabolized” in data set [6]. Also, the “Bacterial Biotransformation” value in data set [7] is listed as “Compound NOT metabolized”; in data set [8] it was “Compound NOT metabolized”; in [9], “Compound metabolized”; in data set [10], “Compound metabolized”; in data set [11] it was “Compound metabolized”; in data set [12] it was “Compound metabolized”. The “Bacterial Biotransformation” value in [13] is reported as “Compound NOT metabolized”; in data set [14] it was “Compound NOT metabolized”; in [15] it was “Compound NOT metabolized”; in data set [16], “Compound metabolized”; in [17], “Compound metabolized”; in data set [18], “Compound NOT metabolized”. Further, the “Bacterial Biotransformation” value in [19] and in [20] was “Compound metabolized” each time.
Take `CCN(CC)CCNC(=O)c1cc(S(C)(=O)=O)ccc1OC` [TIAPRIDE]: the “Bacterial Biotransformation” value in data set [1] is “Compound NOT metabolized”; in data set [2], “Compound NOT metabolized”; in data set [3] it was “Compound metabolized”; in data set [4], “Compound NOT metabolized”; in data set [5] it was “Compound NOT metabolized”; in data set [6] it was “Compound NOT metabolized”. Also, the “Bacterial Biotransformation” value in data set [7] is listed as “Compound NOT metabolized”; in [8] it was “Compound NOT metabolized”; in data set [9], “Compound NOT metabolized”; in data set [10] it was “Compound NOT metabolized”; in data set [11], “Compound metabolized”; in data set [12], “Compound metabolized”. The “Bacterial Biotransformation” value is “Compound NOT metabolized” in data set [13]; “Compound NOT metabolized” in [14]; “Compound NOT metabolized” in data set [15]; “Compound metabolized” in data set [16]; “Compound NOT metabolized” in data set [17]; “Compound NOT metabolized” in data set [18]. Besides, the “Bacterial Biotransformation” value in [19] is recorded as “Compound NOT metabolized”; in data set [20], “Compound metabolized”.
Take `CC(=O)OCC(CCn1cnc2cnc(N)nc21)COC(C)=O` [FAMCICLOVIR]: the “Bacterial Biotransformation” value in data set [1], in data set [2], in data set [3], in data set [4], in data set [5] and in data set [6] was “Compound metabolized” throughout. Further, the “Bacterial Biotransformation” value was “Compound NOT metabolized” in [7]; “Compound metabolized” in [8]; “Compound metabolized” in data set [9]; “Compound metabolized” in data set [10]; “Compound metabolized” in data set [11]; “Compound metabolized” in data set [12]. In addition, the “Bacterial Biotransformation” value in data set [13] is recorded as “Compound metabolized”; in data set [14] it was “Compound metabolized”; in [15], “Compound NOT metabolized”; in [16] it was “Compound metabolized”; in data set [17] it was “Compound metabolized”; in data set [18] it was “Compound metabolized”. For the same compound, the “Bacterial Biotransformation” value in data set [19] and in data set [20] was “Compound metabolized” in each case.
